Experiments:
[1] = biological target: T1, LRRK2 (Homo sapiens, UniProt Q5S007); test: Radiometric kinase assay, off-target LRRK2; assay type: biochemical; conditions: off-target from DiscoveRx kinome profiling
T1 construct: Reaction Biology (Malvern, Pa.), contract assay
Method: (§1) Aurora B and other radiometric kinase assays were performed by Reaction Biology (Malvern, Pa.). Kinome profiling of centrinone and centrinone-B was performed by DiscoveRx (San Diego, Calif.).

[2] = tested on: RPE1 cells; test: Analysis of mitosis and daughter cell fate, RPE1; assay type: cell-based, human
Method: Analysis of mitosis and daughter cell fate. […] Cells were seeded into 96-well cycloolefin plates at 5000 cells/well, 8-10 hours before imaging. Movies were acquired on the CV1000 with a 40×0.95 NA U-PlanApo objective. The imaging chamber was maintained at 37° C. and 5% CO2. Image acquisition and data analysis were performed using CellVoyager software. 20 fields/well were imaged. For HeLa and NIH/3T3 cells, 5×2 μm z-sections in the GFP (25% power, 125 ms, 30% gain) and RFP (25% power, 100 ms, 30% gain) channels were captured in each field, at 5-minute intervals for 24 hours. For RPE1 cells, 5×2 μm z-sections in the GFP (20% power, 100 ms, 30% gain) and RFP (25% power, 100 ms, 30% gain) channels were captured in each field, at 5-minute intervals for 8 hours. To track RPE1 daughter cell fate, imaging was then switched to 3×4 μm z-sections in the RFP channel only, at 10-minute intervals for 48 hours. Mitosis was measured from nuclear envelope breakdown to anaphase onset (or arrest). Results represent combined measurements of 100 mother cells per condition from 2-4 independent experiments.
To study the correlation between mother cell prometaphase duration and daughter cell fate, RPE1 cells co-expressing centrin-GFP and H2B-RFP were seeded into 96-well cycloolefin plates at 5000 cells/well, 8-10 hours before imaging. Cells were treated with 80 nM nocodazole and immediately imaged on the CV1000 system with a 40×0.95 NA U-PlanApo objective. The imaging chamber was maintained at 37° C. and 5% CO2. 20 fields/well were imaged. 5×2 Lm z-sections in the GFP (20% power, 100 ms, 30% gain) and RFP (25% power, 100 ms, 30% gain) channels were captured in each field, at 5-minute intervals for 6 hours. The plate was then removed from the microscope, and wells were washed 6 times with warm medium. The plate was returned to the microscope, and imaging was resumed, capturing 3×4 Lm z-sections in the RFP channel only, at 10-minute intervals for 50 hours. To study the effect of chromosome missegregation on daughter cell fate, cells were treated with 1 LM NMS-P715 to inhibit the spindle assembly checkpoint kinase Mps1, then imaged as described above. Only mitotic events with clear missegregation (lagging chromosomes and subsequent formation of daughter cells with micronuclei) were analyzed. For both experiments, results represent combined measurements of 100 mother cells from 2 independent experiments.

[3] = biological target: T2, human Aurora A (Homo sapiens, UniProt O14965); test: Aurora A kinase assay (ADP-Glo); assay type: biochemical
T2 construct: purchased Millipore
T2 sequence (O14965 1-403): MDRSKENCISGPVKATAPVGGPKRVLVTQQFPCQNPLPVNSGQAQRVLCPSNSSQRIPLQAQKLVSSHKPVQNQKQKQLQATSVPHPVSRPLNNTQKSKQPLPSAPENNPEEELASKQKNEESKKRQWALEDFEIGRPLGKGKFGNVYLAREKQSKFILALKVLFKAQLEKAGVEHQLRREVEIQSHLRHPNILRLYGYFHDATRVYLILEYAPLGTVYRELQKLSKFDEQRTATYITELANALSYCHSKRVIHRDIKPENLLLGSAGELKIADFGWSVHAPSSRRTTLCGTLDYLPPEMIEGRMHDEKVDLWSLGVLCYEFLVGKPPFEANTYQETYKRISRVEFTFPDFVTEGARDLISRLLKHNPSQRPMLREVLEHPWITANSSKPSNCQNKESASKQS
Method: LRRASLG)+inhibitors arrayed in dose response (added as described above). […] Detection, measurement and data analysis were performed as described above.

[4] = biological target: FLT4/VEGFR3 (Homo sapiens, UniProt P35916); test: Radiometric kinase assay, off-target FLT4/VEGFR3; assay type: biochemical; conditions: off-target from DiscoveRx kinome profiling
Chain of FLT4/VEGFR3 (P35916 25-1363): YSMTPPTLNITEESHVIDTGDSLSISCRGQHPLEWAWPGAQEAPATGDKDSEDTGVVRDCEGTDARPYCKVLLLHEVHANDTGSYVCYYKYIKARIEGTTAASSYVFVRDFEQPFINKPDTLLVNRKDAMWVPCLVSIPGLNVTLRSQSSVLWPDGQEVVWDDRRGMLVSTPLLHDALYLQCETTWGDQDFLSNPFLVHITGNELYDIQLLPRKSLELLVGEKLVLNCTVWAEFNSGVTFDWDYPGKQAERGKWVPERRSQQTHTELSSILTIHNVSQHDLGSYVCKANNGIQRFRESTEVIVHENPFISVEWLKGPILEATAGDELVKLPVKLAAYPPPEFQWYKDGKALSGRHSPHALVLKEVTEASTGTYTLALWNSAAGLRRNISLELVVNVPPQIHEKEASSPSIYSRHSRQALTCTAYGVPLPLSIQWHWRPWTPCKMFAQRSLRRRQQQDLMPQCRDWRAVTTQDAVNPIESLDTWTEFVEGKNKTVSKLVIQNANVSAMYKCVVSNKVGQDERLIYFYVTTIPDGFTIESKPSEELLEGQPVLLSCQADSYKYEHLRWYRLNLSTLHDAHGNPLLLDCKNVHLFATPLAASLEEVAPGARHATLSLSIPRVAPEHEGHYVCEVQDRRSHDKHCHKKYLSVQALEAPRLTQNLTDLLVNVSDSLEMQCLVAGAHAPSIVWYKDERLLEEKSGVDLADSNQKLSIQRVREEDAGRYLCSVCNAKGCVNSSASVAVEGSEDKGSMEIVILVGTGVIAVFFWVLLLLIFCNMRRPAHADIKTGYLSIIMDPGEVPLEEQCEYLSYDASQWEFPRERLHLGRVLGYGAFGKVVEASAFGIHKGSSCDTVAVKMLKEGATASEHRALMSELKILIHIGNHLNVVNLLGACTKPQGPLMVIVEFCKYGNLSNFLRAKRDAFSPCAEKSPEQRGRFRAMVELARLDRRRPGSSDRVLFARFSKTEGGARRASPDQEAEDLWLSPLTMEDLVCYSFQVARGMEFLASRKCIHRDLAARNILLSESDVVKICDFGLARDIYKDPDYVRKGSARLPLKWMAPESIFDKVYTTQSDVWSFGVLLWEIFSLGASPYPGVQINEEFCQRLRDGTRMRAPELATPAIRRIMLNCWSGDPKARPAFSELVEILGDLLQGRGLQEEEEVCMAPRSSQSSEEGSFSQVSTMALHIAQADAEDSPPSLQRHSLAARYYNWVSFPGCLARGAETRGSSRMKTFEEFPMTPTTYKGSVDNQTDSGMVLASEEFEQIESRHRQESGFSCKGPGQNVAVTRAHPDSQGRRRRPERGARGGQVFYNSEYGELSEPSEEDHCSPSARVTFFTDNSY
Method: as §1

[5] = tested on: NIH/3T3 cells; test: Microtubule regrowth assay, NIH/3T3; assay type: cell-based, mouse; conditions: NIH/3T3, 5 minutes after washout
Method: Microtubule regrowth assay. […] Cells were seeded onto coverslips in 12-well plates and treated with 16 μM nocodazole for 4 hours to depolymerize microtubules. Wells were washed 6 times with PBS to remove the nocodazole, and fresh, pre-warmed medium was added to each well. After 5 minutes of recovery, cells were fixed with 100% methanol (−20° C., 5 minutes) and stained with antibodies against γ-tubulin and α-tubulin. Coverslips were mounted onto slides and imaged on a DeltaVision microscope (Applied Precision) with a 60×1.42 NA PlanApo objective and CoolSnap camera (Photometrics). Image deconvolution was performed in softWoRx (Applied Precision) and subsequent processing was performed in ImageJ (NIH).

[6] = tested on: RPE1 cells; test: Passaging assay and flow cytometry, RPE1; assay type: cell-based, human
Method: Passaging assays. Cells were seeded into 10 cm tissue culture plates at 150,000 (HeLa, NIH/3T3 and RPE1) or 200,000 cells/plate (primary fibroblasts). Compounds were added at the indicated concentrations. At 4-day intervals, cells were harvested, counted using a TC10 cell counter, and re-seeded into new plates at the densities above. Results are from 2 independent experiments.
Flow cytometry. Cells were seeded into 15 cm tissue culture plates such that each plate was 50-80% confluent at the time of harvesting. Cells were de-adhered by trypsinization and pelleted in 15 ml tubes by centrifugation. Each pellet was resuspended in 0.3 mL PBS, and 0.7 mL ice-cold 100% ethanol was added to the tube while gently vortexing. Fixed cells were stored at 4° C. for up to 2 weeks. For DNA content analysis, fixed cells were pelleted, washed twice with PBS, and resuspended in 0.5 mL PBS+2% BSA and Alexa488-conjugated anti-p-H3(Ser10) antibody. Samples were incubated for 1 hour at 4° C., then washed twice with PBS+2% BSA. Pellets were resuspended in 1 mL PBS+2% BSA, 10 μg/ml propidium iodide (Sigma-Aldrich), 500 µg/ml RNAse A (Thermo Scientific). Samples were incubated at 37° C. for 30 minutes, then transferred to 12×75 mm tubes for analysis. Data were acquired using FACSDiva software on a LSR II flow cytometer (BD Biosciences). 50,000 cells were analyzed per condition. Cell cycle fitting was performed using ModFit LT (Verity Software House).

T1 sequence (Q5S007 whole entry): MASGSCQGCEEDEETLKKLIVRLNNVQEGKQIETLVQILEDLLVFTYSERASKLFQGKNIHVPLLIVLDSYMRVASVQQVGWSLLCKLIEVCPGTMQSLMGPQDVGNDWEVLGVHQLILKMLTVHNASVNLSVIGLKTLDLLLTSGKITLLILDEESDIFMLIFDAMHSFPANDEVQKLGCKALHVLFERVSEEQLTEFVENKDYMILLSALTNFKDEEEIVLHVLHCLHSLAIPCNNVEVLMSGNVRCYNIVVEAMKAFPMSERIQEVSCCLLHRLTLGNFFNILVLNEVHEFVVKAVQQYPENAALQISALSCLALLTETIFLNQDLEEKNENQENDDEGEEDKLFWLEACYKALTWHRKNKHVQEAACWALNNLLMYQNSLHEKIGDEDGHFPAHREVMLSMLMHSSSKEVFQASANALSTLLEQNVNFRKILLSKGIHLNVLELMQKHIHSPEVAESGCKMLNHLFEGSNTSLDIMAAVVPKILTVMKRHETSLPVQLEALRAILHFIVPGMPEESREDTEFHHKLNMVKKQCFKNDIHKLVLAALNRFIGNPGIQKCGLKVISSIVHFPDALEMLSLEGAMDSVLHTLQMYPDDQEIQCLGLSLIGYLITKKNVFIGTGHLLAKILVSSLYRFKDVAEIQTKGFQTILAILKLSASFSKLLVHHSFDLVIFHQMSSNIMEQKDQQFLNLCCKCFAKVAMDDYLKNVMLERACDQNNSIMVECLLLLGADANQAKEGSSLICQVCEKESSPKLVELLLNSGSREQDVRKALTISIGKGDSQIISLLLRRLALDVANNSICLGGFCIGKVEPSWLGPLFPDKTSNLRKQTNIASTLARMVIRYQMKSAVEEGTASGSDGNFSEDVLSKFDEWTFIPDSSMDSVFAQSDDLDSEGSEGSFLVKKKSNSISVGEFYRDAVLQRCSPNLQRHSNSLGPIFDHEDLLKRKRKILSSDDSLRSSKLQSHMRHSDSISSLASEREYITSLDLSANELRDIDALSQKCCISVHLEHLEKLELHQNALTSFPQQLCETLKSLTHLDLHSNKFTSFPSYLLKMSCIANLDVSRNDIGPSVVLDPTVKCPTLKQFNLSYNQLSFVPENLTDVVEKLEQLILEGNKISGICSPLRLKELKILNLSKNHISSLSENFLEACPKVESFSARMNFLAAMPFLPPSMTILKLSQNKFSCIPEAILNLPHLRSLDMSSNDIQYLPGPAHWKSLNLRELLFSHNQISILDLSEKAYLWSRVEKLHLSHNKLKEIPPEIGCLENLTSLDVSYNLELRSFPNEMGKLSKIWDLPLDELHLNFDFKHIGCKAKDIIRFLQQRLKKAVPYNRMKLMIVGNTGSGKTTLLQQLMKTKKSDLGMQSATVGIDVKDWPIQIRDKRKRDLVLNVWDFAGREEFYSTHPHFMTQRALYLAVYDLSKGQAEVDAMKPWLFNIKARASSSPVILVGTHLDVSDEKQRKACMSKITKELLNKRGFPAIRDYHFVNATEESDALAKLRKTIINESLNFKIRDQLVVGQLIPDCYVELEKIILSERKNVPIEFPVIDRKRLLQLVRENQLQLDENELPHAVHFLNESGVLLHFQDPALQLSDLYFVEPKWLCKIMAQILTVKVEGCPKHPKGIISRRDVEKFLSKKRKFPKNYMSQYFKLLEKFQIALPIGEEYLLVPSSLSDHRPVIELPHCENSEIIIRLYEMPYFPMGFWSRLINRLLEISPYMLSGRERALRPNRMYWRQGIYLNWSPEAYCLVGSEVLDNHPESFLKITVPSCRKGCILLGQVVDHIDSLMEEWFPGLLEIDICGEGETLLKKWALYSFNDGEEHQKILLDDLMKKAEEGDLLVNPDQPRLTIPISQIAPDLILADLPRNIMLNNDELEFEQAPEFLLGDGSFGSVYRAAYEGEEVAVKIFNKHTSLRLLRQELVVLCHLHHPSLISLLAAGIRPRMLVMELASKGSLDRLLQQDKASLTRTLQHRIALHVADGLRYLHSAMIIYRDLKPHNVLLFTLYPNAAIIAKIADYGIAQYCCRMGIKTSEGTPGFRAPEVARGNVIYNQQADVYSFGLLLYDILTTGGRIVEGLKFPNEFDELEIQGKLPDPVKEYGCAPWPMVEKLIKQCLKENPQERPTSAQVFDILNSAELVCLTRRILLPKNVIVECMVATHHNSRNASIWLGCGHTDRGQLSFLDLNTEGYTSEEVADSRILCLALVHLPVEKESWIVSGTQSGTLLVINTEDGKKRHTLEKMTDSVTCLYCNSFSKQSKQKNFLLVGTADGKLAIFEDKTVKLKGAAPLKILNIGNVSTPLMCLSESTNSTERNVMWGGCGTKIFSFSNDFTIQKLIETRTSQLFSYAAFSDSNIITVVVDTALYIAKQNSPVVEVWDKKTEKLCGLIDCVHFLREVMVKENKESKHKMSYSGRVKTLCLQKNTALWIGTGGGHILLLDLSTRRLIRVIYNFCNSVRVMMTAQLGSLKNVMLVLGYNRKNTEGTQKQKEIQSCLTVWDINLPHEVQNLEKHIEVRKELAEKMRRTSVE

## COc1c(Nc2cc(C)[nH]n2)nc(Sc2ccc(S(=O)(=O)Cc3cccc([N+](=O)[O-])c3F)cc2F)nc1N1CCOCC1 [Centrinone, 2-((2-fluoro-4-((2-fluoro-3-nitrobenzyl)sulfonyl)phenyl)thio)-5-methoxy-N-(5-methyl-1H-pyrazol-3-yl)-6-morpholinopyrimidin-4-amine]
[1]
  Ki: 2.08 nM
[2]; RPE1, FIG. 18A
  percentage of daughters not dividing within 48 hours: 1.5%
[2]; RPE1, acute treatment
  0-centrosome progeny of pioneer 1-centrosome mothers arrested: 33.0%
  1-centrosome progeny of pioneer 1-centrosome mothers arrested: 25.5%
  progeny of pioneer 0-centrosome mothers arrested: 70%
[3]
  Ki: 171 nM
[4]
  Ki: 6.29 nM
[5]
  microtubule organization after nocodazole washout: short microtubules form throughout the cytoplasm
[6]; RPE1, 12-day passaging assay and flow cytometry
  cell cycle after centrosome depletion: cell cycle arrest in G1
[6]; RPE1, addition Day 0, washout Day 8
  proliferation after washout: did not
